The values that follow are results of earlier work, collected in article PMC8778659 (Bioconjugate Chemistry, 2021).

The subject of the data set is LNCaP xenografts. The settings on record: 1 h p.i. ref 29.

For `O=C(O)CC[C@H](NC(=O)N[C@@H](CCCCNC(=O)c1ccc(-c2cn(CCOCCOCC[18F])nn2)cc1)C(=O)O)C(=O)O` [[18F]PSMA-MIC01], the specific tumor uptake is 11.7 ± 4.2 %ID/g.
